≈ marks a conversion by molar mass, not a printed value. *1 amine or outer side, *2 acyl side, *3 side chain or, on linkers, in order; H or OH if unused. Where a SMILES comes first, the peptide text is derived from it. Bridges are numbered along the chain shown (N, C = ends). [ ]: non-standard residue; d: D form. ξ: configuration not given here. X2 = CCCCCCCCCCCC(CC(=O)[*:1])O[*:2]; ξAsp(3ξ-OH) = NC(C(=O)O)C(O)C(=O)O; X1 = O=C(C1C(O)CCN1[*:1])[*:2]
Tests used:
[1] = system: Veillonella alcalescens A21914-1; assay: MIC, serial two-fold dilution method (anaerobic); assay type: cell-based; settings: Veillonella alcalescens A21914-1, GAM agar medium, inoculum 10^7-10^8; for MIC: Veillonella parvula, A219141, read-out: minimum inhibitory concentration (MIC)
[2] = system: Clostridium cylindrosporum A9562; assay: MIC, serial two-fold dilution method (anaerobic); assay type: cell-based; settings: Clostridium cylindrosporum A9562, GAM agar medium, inoculum 10^7-10^8; for MIC: read-out: minimum inhibitory concentration (MIC)
[3] = system: Propionibacterium acnes A21933; assay: MIC, serial two-fold dilution method (anaerobic); assay type: cell-based; settings: Propionibacterium acnes A21933, GAM agar medium, inoculum 10^7-10^8; for MIC: Cutibacterium acnes, read-out: minimum inhibitory concentration (MIC)
[4] = system: Bacillus anthracis IID-115; assay: microbe, parasite or virus in culture; assay type: cell-based; settings: for MIC: Bacillus anthracis, IID115, read-out: minimum inhibitory concentration (MIC)
[5] = system: Bacteroides ovatus A22400; assay: MIC, serial two-fold dilution method (anaerobic); assay type: cell-based; settings: Bacteroides ovatus A22400, GAM agar medium, inoculum 10^7-10^8; for MIC: read-out: minimum inhibitory concentration (MIC)
Micrococcus flavus D-12 = assay: MIC, serial two-fold dilution method (aerobic); assay type: cell-based; settings: Micrococcus flavus D-12, Mueller-Hinton agar, inoculum 10^4; for MIC: D12, read-out: minimum inhibitory concentration (MIC)
[6] = system: Clostridium septicum A21869; assay: MIC, serial two-fold dilution method (anaerobic); assay type: cell-based; settings: Clostridium septicum A21869, GAM agar medium, inoculum 10^7-10^8; for MIC: read-out: minimum inhibitory concentration (MIC)
Experimental: (§1) The minimum inhibitory concentration (MIC) of Bu-2517 was determined for a variety of aerobic and anaerobic bacteria by the serial two-fold dilution method using a multi-inoculating apparatus. Mueller-Hinton agar was generally used for aerobic bacteria, GC medium (Eiken) for fastidious aerobic organisms such as streptococci, Neisseria and Haemophilus species, and GAM agar medium (Nissui) for anaerobic bacteria. The inoculum size was adjusted to 10^6 CFU/ml for streptococci, Neisseria and Haemophilus species, 10^4 for other aerobic bacteria and 10^7 -10^8 for all anaerobic organisms. Amphomycin, ampicillin, chloramphenicol, clindamycin, erthromycin, kanamycin and vancomycin were used as reference antibiotics.

[7] = system: Clostridium chauvoei A9561; assay: MIC, serial two-fold dilution method (anaerobic); assay type: cell-based; settings: Clostridium chauvoei A9561, GAM agar medium, inoculum 10^7-10^8; for MIC: read-out: minimum inhibitory concentration (MIC)
Experimental: as §1

[8] = system: Clostridium difficile A21972; assay: MIC, serial two-fold dilution method (anaerobic); assay type: cell-based; settings: Clostridium difficile A21972, GAM agar medium, inoculum 10^7-10^8; for MIC: Clostridioides difficile, read-out: minimum inhibitory concentration (MIC)
Experimental: as §1

[9] = system: Clostridium difficile A21675; assay: MIC, serial two-fold dilution method (anaerobic); assay type: cell-based; settings: Clostridium difficile A21675, GAM agar medium, inoculum 10^7-10^8; for MIC: Clostridioides difficile, read-out: minimum inhibitory concentration (MIC)
Experimental: as §1

[10] = system: Bacteroides fragilis A22053; assay: MIC, serial two-fold dilution method (anaerobic); assay type: cell-based; settings: Bacteroides fragilis A22053, GAM agar medium, inoculum 10^7-10^8; for MIC: read-out: minimum inhibitory concentration (MIC)
[11] = system: Clostridium acidiurici A9560; assay: MIC, serial two-fold dilution method (anaerobic); assay type: cell-based; settings: Clostridium acidiurici A9560, GAM agar medium, inoculum 10^7-10^8; for MIC: Gottschalkia acidurici, read-out: minimum inhibitory concentration (MIC)
[12] = system: Staphylococcus aureus A9748; assay: MIC, serial two-fold dilution method (aerobic); assay type: cell-based; settings: Staphylococcus aureus A9748, Mueller-Hinton agar, inoculum 10^4; for MIC: read-out: minimum inhibitory concentration (MIC)
[13] = system: Staphylococcus aureus A20394; assay: MIC, serial two-fold dilution method (aerobic); assay type: cell-based; settings: Staphylococcus aureus A20394, Mueller-Hinton agar, inoculum 10^4; for MIC: read-out: minimum inhibitory concentration (MIC)
[14] = system: Bacteroides fragilis A20929; assay: MIC, serial two-fold dilution method (anaerobic); assay type: cell-based; settings: Bacteroides fragilis A20929, GAM agar medium, inoculum 10^7-10^8; for MIC: read-out: minimum inhibitory concentration (MIC)
[15] = system: Peptostreptococcus intermedius A21881; assay: MIC, serial two-fold dilution method (anaerobic); assay type: cell-based; settings: Peptostreptococcus intermedius A21881, GAM agar medium, inoculum 10^7-10^8; for MIC: read-out: minimum inhibitory concentration (MIC)
[16] = system: Staphylococcus aureus A20701; assay: MIC, serial two-fold dilution method (aerobic); assay type: cell-based; settings: Staphylococcus aureus A20701, Mueller-Hinton agar, inoculum 10^4; for MIC: read-out: minimum inhibitory concentration (MIC)
[17] = system: Streptococcus pneumoniae IID-Type-I; assay: MIC, serial two-fold dilution method (aerobic); assay type: cell-based; settings: Streptococcus pneumoniae IID-Type-I; GC medium; inoculum 10^6 CFU/ml
[18] = system: Staphylococcus aureus A9601; assay: MIC, serial two-fold dilution method (aerobic); assay type: cell-based; settings: Staphylococcus aureus A9601, Mueller-Hinton agar, inoculum 10^4; for MIC: read-out: minimum inhibitory concentration (MIC)
[19] = system: Fusobacterium nucleatum A21906; assay: MIC, serial two-fold dilution method (anaerobic); assay type: cell-based; settings: Fusobacterium nucleatum A21906, GAM agar medium, inoculum 10^7-10^8; for MIC: read-out: minimum inhibitory concentration (MIC)
[20] = system: Neisseria meningitidis A20048; assay: MIC, serial two-fold dilution method (aerobic); assay type: cell-based; settings: Neisseria meningitidis A20048; GC medium; inoculum 10^6 CFU/ml
Escherichia coli NIHJ = assay: MIC, serial two-fold dilution method (aerobic); assay type: cell-based; settings: Escherichia coli NIHJ, Mueller-Hinton agar, inoculum 10^4; for MIC: read-out: minimum inhibitory concentration (MIC)
[21] = system: Staphylococcus aureus A9856; assay: MIC, serial two-fold dilution method (aerobic); assay type: cell-based; settings: Staphylococcus aureus A9856, Mueller-Hinton agar, inoculum 10^4; for MIC: read-out: minimum inhibitory concentration (MIC)
[22] = system: Propionibacterium acnes A21953; assay: MIC, serial two-fold dilution method (anaerobic); assay type: cell-based; settings: Propionibacterium acnes A21953, GAM agar medium, inoculum 10^7-10^8; for MIC: Cutibacterium acnes, read-out: minimum inhibitory concentration (MIC)
S. aureus 209P = assay: Antibiotic sensitivity, paper disc-agar diffusion method; assay type: cell-based; design: key: S (sensitive); R (resistant); I (intermediate); settings: nutrient agar, 2 day's incubation at 28° C., Difco discs, amount/disc per antibiotic
Strain G393-B445 = assay: as above; assay type: cell-based, Empedobacter sp.; design: key: S (sensitive); R (resistant); I (intermediate); settings: nutrient agar, 2 day's incubation at 28° C., Difco discs, amount/disc per antibiotic

CCCCCCCCCCCC1CC(=O)N2CCCC2C(=O)NC(CO)C(=O)N2CCCC2C(=O)NC(CCCNC(=N)N)C(=O)NC(C(O)C(=O)O)C(=O)NC(CO)C(=O)N2CCC(O)C2C(=O)NC(C(O)C(=O)O)C(=O)O1 (stereo not drawn) [Bu-2517] (PSPR[ξAsp(3ξ-OH)]S[X1][ξAsp(3ξ-OH)]; linker N-C via X2; configuration not given here)
minimum inhibitory concentration (MIC) [1]: 1.6 µg/mL (≈ 1.42 µM) | minimum inhibitory concentration (MIC) [2]: 1.6 µg/mL (≈ 1.42 µM) | minimum inhibitory concentration (MIC) [3]: 1.6 µg/mL (≈ 1.42 µM) | minimum inhibitory concentration (MIC) ([4]; Bacillus anthracis IID-115, Mueller-Hinton agar, inoculum 10^4): 0.8 µg/mL (≈ 0.71 µM) | minimum inhibitory concentration (MIC) [5]: > 100 µg/mL | minimum inhibitory concentration (MIC) (Micrococcus flavus D-12): < 0.05 µg/mL | minimum inhibitory concentration (MIC) [6]: 1.6 µg/mL (≈ 1.42 µM) | minimum inhibitory concentration (MIC) [7]: 3.1 µg/mL (≈ 2.75 µM) | minimum inhibitory concentration (MIC) [8]: 1.6 µg/mL (≈ 1.42 µM) | minimum inhibitory concentration (MIC) [9]: 1.6 µg/mL (≈ 1.42 µM) | minimum inhibitory concentration (MIC) [10]: > 100 µg/mL | minimum inhibitory concentration (MIC) [11]: 1.6 µg/mL (≈ 1.42 µM) | minimum inhibitory concentration (MIC) [12]: 1.6 µg/mL (≈ 1.42 µM) | minimum inhibitory concentration (MIC) [13]: 1.6 µg/mL (≈ 1.42 µM) | minimum inhibitory concentration (MIC) [14]: 3.1 µg/mL (≈ 2.75 µM) | minimum inhibitory concentration (MIC) [15]: 3.1 µg/mL (≈ 2.75 µM) | minimum inhibitory concentration (MIC) [16]: 1.6 µg/mL (≈ 1.42 µM) | minimum inhibitory concentration (MIC) [17]: 0.8 µg/mL (≈ 0.71 µM) | minimum inhibitory concentration (MIC) [18]: 1.6 µg/mL (≈ 1.42 µM) | minimum inhibitory concentration (MIC) [19]: 12.5 µg/mL (≈ 11.1 µM) | minimum inhibitory concentration (MIC) [20]: > 100 µg/mL | minimum inhibitory concentration (MIC) (Escherichia coli NIHJ): > 100 µg/mL | minimum inhibitory concentration (MIC) [21]: 0.8 µg/mL (≈ 0.71 µM) | minimum inhibitory concentration (MIC) [22]: 6.3 µg/mL (≈ 5.59 µM)

O=C(N[C@H](CO)[C@H](O)c1ccc([N+](=O)[O-])cc1)C(Cl)Cl [Chloramphenicol]
MIC [1]: 1.6 µg/mL (≈ 4.95 µM) | MIC [2]: 6.3 µg/mL (≈ 19.5 µM) | Sensitivity S. aureus 209P (S. aureus 209P): S | MIC [3]: 3.1 µg/mL (≈ 9.59 µM) | MIC [4]: 3.1 µg/mL (≈ 9.59 µM) | MIC [5]: 1.6 µg/mL (≈ 4.95 µM) | MIC (Micrococcus flavus D-12): 1.6 µg/mL (≈ 4.95 µM) | MIC [6]: 6.3 µg/mL (≈ 19.5 µM) | MIC [7]: 6.3 µg/mL (≈ 19.5 µM) | MIC [8]: 3.1 µg/mL (≈ 9.59 µM) | MIC [9]: 3.1 µg/mL (≈ 9.59 µM) | MIC [10]: 3.1 µg/mL (≈ 9.59 µM) | MIC [11]: 6.3 µg/mL (≈ 19.5 µM) | MIC [12]: 6.3 µg/mL (≈ 19.5 µM) | MIC [13]: 50 µg/mL (≈ 155 µM) | MIC [14]: 3.1 µg/mL (≈ 9.59 µM) | MIC [15]: 3.1 µg/mL (≈ 9.59 µM) | MIC [16]: 50 µg/mL (≈ 155 µM) | MIC [18]: 6.3 µg/mL (≈ 19.5 µM) | MIC [19]: 6.3 µg/mL (≈ 19.5 µM) | MIC (Escherichia coli NIHJ): 0.8 µg/mL (≈ 2.48 µM) | MIC [21]: 3.1 µg/mL (≈ 9.59 µM) | MIC [22]: 1.6 µg/mL (≈ 4.95 µM) | Sensitivity Strain G393-B445 (Strain G393-B445): S

CC[C@H]1OC(=O)[C@H](C)[C@@H](O[C@H]2C[C@@](C)(OC)[C@@H](O)[C@H](C)O2)[C@H](C)[C@@H](O[C@@H]2O[C@H](C)C[C@H](N(C)C)[C@H]2O)[C@](C)(O)C[C@@H](C)C(=O)[C@H](C)[C@@H](O)[C@]1(C)O [Erythromycin]
MIC [1]: 0.2 µg/mL (≈ 0.273 µM) | MIC [2]: 3.1 µg/mL (≈ 4.22 µM) | Sensitivity S. aureus 209P (S. aureus 209P): S | MIC [3]: 1.6 µg/mL (≈ 2.18 µM) | MIC [4]: 0.4 µg/mL (≈ 0.545 µM) | MIC [5]: > 100 µg/mL | MIC (Micrococcus flavus D-12): < 0.05 µg/mL | MIC [6]: 0.8 µg/mL (≈ 1.09 µM) | MIC [7]: 1.6 µg/mL (≈ 2.18 µM) | MIC [8]: 3.1 µg/mL (≈ 4.22 µM) | MIC [9]: > 100 µg/mL | MIC [10]: 3.1 µg/mL (≈ 4.22 µM) | MIC [11]: 1.6 µg/mL (≈ 2.18 µM) | MIC [12]: 0.4 µg/mL (≈ 0.545 µM) | MIC [13]: 0.2 µg/mL (≈ 0.273 µM) | MIC [14]: 1.6 µg/mL (≈ 2.18 µM) | MIC [15]: 0.4 µg/mL (≈ 0.545 µM) | MIC [16]: > 100 µg/mL | MIC [18]: 0.4 µg/mL (≈ 0.545 µM) | MIC [19]: 1.6 µg/mL (≈ 2.18 µM) | MIC (Escherichia coli NIHJ): 100 µg/mL (≈ 136 µM) | MIC [21]: 0.2 µg/mL (≈ 0.273 µM) | MIC [22]: 0.8 µg/mL (≈ 1.09 µM) | Sensitivity Strain G393-B445 (Strain G393-B445): S
